Results reported in patent publication US9708314B2, “Heterocyclic amide compound” (NISSAN CHEMICAL INDUSTRIES, LTD., priority 2013, dated 2017).

Experiments:
Type in all cases: in vivo
[1] = test system: Abutilon theophrasti; assay: Test Example 4: herbicidal effect by application to foliage (diluvial soil, plastic box); conditions: Application herbicide amount 320 g/ha; foliage application
Outline: (§1)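 Seeds sown in sterilized diluvial soil, covered ~1.5 cm, grown 14 days in greenhouse at 25° C. to 30° C. Emulsion formulation diluted in water to set rate (g/ha) and sprayed onto stems and leaves. Effect scored visually 3 weeks later on 0–5 scale (5 = ≥90% herbicidal ratio, 0 = ≤5%).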

[2] = test system: Chenopodium album; assay: as above; conditions: Application herbicide amount 320 g/ha; foliage application
Outline: as §1

[3] = test system: Stellaria media; assay: as above; conditions: Application herbicide amount 320 g/ha; foliage application
Outline: as §1

[4] = test system: Echinochloa crus-galli var. crus-galli; assay: as above; conditions: Application herbicide amount 320 g/ha; foliage application
Outline: as §1

[5] = test system: Alopecurus myosuroides; assay: as above; conditions: Application herbicide amount 320 g/ha; foliage application
Outline: as §1

[6] = test system: Galium spurium; assay: as above; conditions: Application herbicide amount 320 g/ha; foliage application
Outline: as §1

[7] = test system: Apera spica-venti.; assay: as above; conditions: Application herbicide amount 320 g/ha; foliage application
Outline: as §1

[8] = test system: Setaria viridis; assay: as above; conditions: Application herbicide amount 320 g/ha; foliage application
Outline: as §1

[9] = test system: Digitaria ciliaris; assay: as above; conditions: Application herbicide amount 320 g/ha; foliage application
Outline: as §1

[10] = test system: Veronica persica; assay: as above; conditions: Application herbicide amount 320 g/ha; foliage application
Outline: as §1

[11] = test system: Lolium multiflorum Lam.; assay: as above; conditions: Application herbicide amount 320 g/ha; foliage application
Outline: as §1

[12] = test system: Amaranthus retroflexus; assay: as above; conditions: Application herbicide amount 320 g/ha; foliage application
Outline: as §1

[13] = test system: Avena fatua; assay: as above; conditions: Application herbicide amount 320 g/ha; foliage application
Outline: as §1

[14] = test system: Glycine max; assay: Test Example 4: effect on crop by application to foliage (diluvial soil, plastic box); conditions: Application herbicide amount 320 g/ha; foliage application
Outline: as §1

[15] = test system: Brassica campestris L.; assay: as above; conditions: Application herbicide amount 320 g/ha; foliage application
Outline: as §1

[16] = test system: Triticum aestivum; assay: as above; conditions: Application herbicide amount 320 g/ha; foliage application
Outline: as §1

[17] = test system: directly sowed Oryza sativa; assay: as above; conditions: Application herbicide amount 320 g/ha; foliage application
Outline: as §1

[18] = test system: Zea mays; assay: as above; conditions: Application herbicide amount 320 g/ha; foliage application
Outline: as §1

[19] = test system: Beta vulgaris ssp. vulgaris; assay: as above; conditions: Application herbicide amount 320 g/ha; foliage application
Outline: as §1

[20] = test system: Scirpus juncoides; assay: Test Example 1: herbicidal activity, application before weed generation in submerged conditions; conditions: Application herbicide amount 320 g/ha; Seventeenth Table
Outline: (§2)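 Pre-emergence water-surface application under 4 cm flooding, same day as sowing, with rice transplanted at 2.5 leaf stage. Dose given as g/ha. Plants grown at 25° C. to 30° C. and rated three weeks later on a 0 (≤5%) to 5 (≥90%) herbicidal-ratio scale.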

[21] = test system: Echinochloa oryzacola Vasing.; assay: as above; conditions: Application herbicide amount 320 g/ha; Seventeenth Table
Outline: as §2

[22] = test system: Monochoria vaginalis; assay: as above; conditions: Application herbicide amount 320 g/ha; Seventeenth Table
Outline: as §2

| SMILES | M (Abutilon theophrasti) herbicidal effect grade [1] | O (Chenopodium album) herbicidal effect grade [2] | P (Stellaria media) herbicidal effect grade [3] | H (Echinochloa crus-galli var. crus-galli) herbicidal effect grade [4] | J (Alopecurus myosuroides) herbicidal effect grade [5] | Q (Galium spurium) herbicidal effect grade [6] | L (Apera spica-venti.) herbicidal effect grade [7] | G (Setaria viridis) herbicidal effect grade [8] | F (Digitaria ciliaris) herbicidal effect grade [9] | R (Veronica persica) herbicidal effect grade [10] | K (Lolium multiflorum Lam.) herbicidal effect grade [11] | N (Amaranthus retroflexus) herbicidal effect grade [12] | I (Avena fatua) herbicidal effect grade [13] | d (Glycine max) effect on crop grade [14] | g (Brassica campestris L.) effect on crop grade [15] | e (Triticum aestivum) effect on crop grade [16] | b (directly sowed Oryza sativa) effect on crop grade [17] | c (Zea mays) effect on crop grade [18] | f (Beta vulgaris ssp. vulgaris) effect on crop grade [19] | B: Scirpus juncoides (herbicidal effect grade) [20] | also measured |
| --- | --- | --- | --- | --- | --- | --- | --- | --- | --- | --- | --- | --- | --- | --- | --- | --- | --- | --- | --- | --- | --- |
| Cc1nnc(NC(=O)c2ccc(C(F)(F)F)n3c(N4CCS(=O)(=O)CC4)nnc23)o1 [1-120] | 4 (Herbicidal ratio of 70% or more and less than 90%) | 5 (Herbicidal ratio of 90% or more (almost completely withered)) | 5 (Herbicidal ratio of 90% or more (almost completely withered)) | 5 (Herbicidal ratio of 90% or more (almost completely withered)) | 3 (Herbicidal ratio of 40% or more and less than 70%) | 5 (Herbicidal ratio of 90% or more (almost completely withered)) | 5 (Herbicidal ratio of 90% or more (almost completely withered)) | 5 (Herbicidal ratio of 90% or more (almost completely withered)) | 5 (Herbicidal ratio of 90% or more (almost completely withered)) | 5 (Herbicidal ratio of 90% or more (almost completely withered)) | 3 (Herbicidal ratio of 40% or more and less than 70%) | 5 (Herbicidal ratio of 90% or more (almost completely withered)) | 3 (Herbicidal ratio of 40% or more and less than 70%) | 4 (Herbicidal ratio of 70% or more and less than 90%) | 5 (Herbicidal ratio of 90% or more (almost completely withered)) | 3 (Herbicidal ratio of 40% or more and less than 70%) | 2 (Herbicidal ratio of 20% or more and less than 40%) | 0 (Herbicidal ratio of 5% or less (almost no effect)) | 5 (Herbicidal ratio of 90% or more (almost completely withered)) | 3 (Herbicidal ratio of 40% or more and less than 70%) | A: Echinochloa oryzicola Vasing. (herbicidal effect grade) [21]: 5 (Herbicidal ratio of 90% or more (almost completely withered)); C: Monochoria vaginalis (herbicidal effect grade) [22]: 1 (Herbicidal ratio of 5% or more and less than 20%) |
| COCCN(C)c1nnc2c(C(=O)Nc3nnco3)ccc(C(F)(F)F)n12 [1-121] | 4 (Herbicidal ratio of 70% or more and less than 90%) | 5 (Herbicidal ratio of 90% or more (almost completely withered)) | 5 (Herbicidal ratio of 90% or more (almost completely withered)) | 5 (Herbicidal ratio of 90% or more (almost completely withered)) | 3 (Herbicidal ratio of 40% or more and less than 70%) | 3 (Herbicidal ratio of 40% or more and less than 70%) | 3 (Herbicidal ratio of 40% or more and less than 70%) | 4 (Herbicidal ratio of 70% or more and less than 90%) | 5 (Herbicidal ratio of 90% or more (almost completely withered)) | 5 (Herbicidal ratio of 90% or more (almost completely withered)) | 3 (Herbicidal ratio of 40% or more and less than 70%) | 5 (Herbicidal ratio of 90% or more (almost completely withered)) | 3 (Herbicidal ratio of 40% or more and less than 70%) | 4 (Herbicidal ratio of 70% or more and less than 90%) | 5 (Herbicidal ratio of 90% or more (almost completely withered)) | 3 (Herbicidal ratio of 40% or more and less than 70%) | 2 (Herbicidal ratio of 20% or more and less than 40%) | 2 (Herbicidal ratio of 20% or more and less than 40%) | 5 (Herbicidal ratio of 90% or more (almost completely withered)) | 4 (Herbicidal ratio of 70% or more and less than 90%) | A: Echinochloa oryzicola Vasing. (herbicidal effect grade) [21]: 5 (Herbicidal ratio of 90% or more (almost completely withered)); C: Monochoria vaginalis (herbicidal effect grade) [22]: 4 (Herbicidal ratio of 70% or more and less than 90%) |
| O=C(Nc1nnco1)c1ccc(C(F)(F)F)n2c(C3CC3)nnc12 [1-144] | 2 (Herbicidal ratio of 20% or more and less than 40%) | 5 (Herbicidal ratio of 90% or more (almost completely withered)) | 5 (Herbicidal ratio of 90% or more (almost completely withered)) | 5 (Herbicidal ratio of 90% or more (almost completely withered)) | 1 (Herbicidal ratio of 5% or more and less than 20%) | 3 (Herbicidal ratio of 40% or more and less than 70%) | 0 (Herbicidal ratio of 5% or less (almost no effect)) | 2 (Herbicidal ratio of 20% or more and less than 40%) | 3 (Herbicidal ratio of 40% or more and less than 70%) | 4 (Herbicidal ratio of 70% or more and less than 90%) | 1 (Herbicidal ratio of 5% or more and less than 20%) | 4 (Herbicidal ratio of 70% or more and less than 90%) | 2 (Herbicidal ratio of 20% or more and less than 40%) | 4 (Herbicidal ratio of 70% or more and less than 90%) | 4 (Herbicidal ratio of 70% or more and less than 90%) | 1 (Herbicidal ratio of 5% or more and less than 20%) | 0 (Herbicidal ratio of 5% or less (almost no effect)) | 0 (Herbicidal ratio of 5% or less (almost no effect)) | 5 (Herbicidal ratio of 90% or more (almost completely withered)) | 3 (Herbicidal ratio of 40% or more and less than 70%) | A: Echinochloa oryzicola Vasing. (herbicidal effect grade) [21]: 5 (Herbicidal ratio of 90% or more (almost completely withered)); C: Monochoria vaginalis (herbicidal effect grade) [22]: 3 (Herbicidal ratio of 40% or more and less than 70%) |
| CCC(CC)c1nnc2c(C(=O)Nc3nnco3)ccc(C(F)(F)F)n12 [1-145] | 3 (Herbicidal ratio of 40% or more and less than 70%) | 5 (Herbicidal ratio of 90% or more (almost completely withered)) | 5 (Herbicidal ratio of 90% or more (almost completely withered)) | 5 (Herbicidal ratio of 90% or more (almost completely withered)) | 1 (Herbicidal ratio of 5% or more and less than 20%) | 1 (Herbicidal ratio of 5% or more and less than 20%) | 3 (Herbicidal ratio of 40% or more and less than 70%) | 4 (Herbicidal ratio of 70% or more and less than 90%) | 5 (Herbicidal ratio of 90% or more (almost completely withered)) | 5 (Herbicidal ratio of 90% or more (almost completely withered)) | 2 (Herbicidal ratio of 20% or more and less than 40%) | 4 (Herbicidal ratio of 70% or more and less than 90%) | 3 (Herbicidal ratio of 40% or more and less than 70%) | 3 (Herbicidal ratio of 40% or more and less than 70%) | 3 (Herbicidal ratio of 40% or more and less than 70%) | 2 (Herbicidal ratio of 20% or more and less than 40%) | 3 (Herbicidal ratio of 40% or more and less than 70%) | 0 (Herbicidal ratio of 5% or less (almost no effect)) | 5 (Herbicidal ratio of 90% or more (almost completely withered)) | 5 (Herbicidal ratio of 90% or more (almost completely withered)) | A: Echinochloa oryzicola Vasing. (herbicidal effect grade) [21]: 5 (Herbicidal ratio of 90% or more (almost completely withered)); C: Monochoria vaginalis (herbicidal effect grade) [22]: 5 (Herbicidal ratio of 90% or more (almost completely withered)) |
